Data published in patent publication US10251396B2, “Amide compound and use of same for noxious arthropod control” (SUMITOMO CHEMICAL COMPANY, LIMITED, priority 2014, dated 2019).

What was measured:
Assay type in all cases: in vivo
[1] = system: Blattella germanica; test: Test Example 1: spray knockdown test on Blattella germanica; settings: 0.25 h; 2.0% w/v in isopropyl alcohol/kerosine=1/9, 1.5 mL sprayed, ten Blattella germanica, within 15 minutes; read-out: knockdown ratio of test vermin within 15 minutes
Procedure: A formulation containing each of the compounds (1), (3), (4), (5), (8), (11), (12) and (21) prepared in accordance with Formulation Example 7 was diluted with an isopropyl alcohol/kerosine=1/9 mixed liquid so that the concentration of each compound became 2.0% w/v, to obtain a diluted solution. Ten vermin Blattella germanica (male female each five vermin) were allowed to release in a container for a test in which a butter was applied on an inner wall (diameter 8.75 cm, height 7.5 cm, bottom face covered with 16 mesh wire net), and the container was arranged on a bottom of a chamber for a test (bottom surface: 46 cm×46 cm, height: 70 cm). From a height of 60 cm from an upper surface of the container, 1.5 mL of the diluted solution was sprayed using a spray gun (spraying pressure 0.42 kg/cm^2). Thirty seconds after spraying, the container was taken out from the chamber for a test, the number of vermin which had been knocked down was counted for 15 minutes with time, and a knockdown ratio was obtained. The knockdown ratio was calculated by the following expression. Knockdown ratio (%)=(number of knocked down vermin/number of test vermin)×100 As a result, the knockdown ratio of test vermin within 15 minutes was 80% or more, in treatment with the compounds (1), (3), (4), (5), (8), (11), (12) and (21), respectively.

[2] = system: Plutella xylostella; test: Test Example 6: cabbage foliar spray test on second instar larvae of Plutella xylostella; settings: 500 ppm diluted solution, 20 mL/cup sprayed to cabbage, 25° C., after 5 days
Procedure: A formulation containing the compound (21) prepared in accordance with Formulation Example 15 was diluted with water so that the concentration became 500 ppm, to prepare a diluted solution. On the other hand, the diluted solution was sprayed to a cabbage at a stage of three leaves planted in a polyethylene cup at a ratio of 20 mL/cup. After spraying, the plant was air-dried, foliage portions were cut and accommodated into a 50 mL cup, 5 second instar larvae of Plutella xylostella were released, and the cup was covered. This was stored at 25° C., and after 5 days, the number of dead vermin was counted, and a dead vermin ratio was obtained by the following expression.

[3] = system: Aphis gossypii; test: Test Example 5: foliar spray test on Aphis gossypii on cucumber; settings: 500 ppm diluted solution, 20 mL/cup sprayed to cucumber, six days after spraying
Procedure: A formulation containing the compound (4) prepared in accordance with Formulation Example 15 was diluted with water so that the concentration became 500 ppm to obtain a diluted solution. On the other hand, a cucumber was planted in a polyethylene cup, and grown until a first true leaf developed. About 20 vermin of Aphis gossypii was parasitized therein. After one day, the diluted solution was sprayed to the cucumber at a ratio of 20 mL/cup. Six days after spraying, the number of live or dead vermin of Aphis gossypii was investigated, and a controlling value was obtained by the following expression. Controlling value (%)={1−(Cb×Tai)/(Cai×Tb)}×100 In addition, letters in the expression indicate the following meanings.

Row | Structure (SMILES) | pest or weed control at 2 % strength [1] | dead vermin ratio [2] | controlling value [3]
1 | COCC(COC)NC(=O)c1cc(COCc2ccccc2)on1 [compound (12)] | ≥ 80% | – | –
2 | COC(CNC(=O)c1cc(COCc2ccccc2)on1)OC [compound (11)] | ≥ 80% | – | –
3 | COC(C)CNC(=O)c1cc(COCc2ccc3ccccc3c2)on1 (stereo not shown) [compound (21)] | ≥ 80% | ≥ 80% | –
4 | COC(C)CNC(=O)c1cc(COCc2ccccc2)on1 (stereo not shown) [compound (4)] | ≥ 80% | – | ≥ 90%
5 | COC(C)(C)CNC(=O)c1cc(COCc2ccccc2)on1 [compound (8)] | ≥ 80% | – | –
6 | CC(C)CNC(=O)c1cc(COCc2ccccc2)on1 [compound (1)] | ≥ 80% | – | –
7 | C=C(C)CNC(=O)c1cc(COCc2ccccc2)on1 [compound (3)] | ≥ 80% | – | –
8 | COCCNC(=O)c1cc(COCc2ccccc2)on1 [compound (5)] | ≥ 80% | – | –
